The values that follow come from publication PMC9848257, “Design and synthesis of novel rigid dibenzo[b,f]azepines through ring closure technique as promising anticancer candidates against leukaemia and acting as selective topoisomerase II inhibitors and DNA intercalators” (Journal of Enzyme Inhibition and Medicinal Chemistry, 2023).

In data set [1] the test system is leukaemia SR cells. Put plainly: Anti-proliferative effect against SR cell line (MTT assay). It is filed as cell-based. The method, then:
The anti-proliferative effect of the 5e counterpart against the SR cell line was estimated using the MTT assay protocol.
Depending on the previous results, the cytotoxic activity of the designed candidate 5e was then evaluated against leukaemia SR cells. Doxorubicin was also evaluated as a reference drug.
(Tetrazolium dyes change colour on reduction, which living cells bring about.)

The nature of data set [2]: Cytotoxic effect against normal cell line. It is filed as cell-based. The note with it: human, normal cell line PSC-800-011; read-out: Cytotoxicity IC50, PSC-800-011. As for the experimental part:
Following, the cytotoxic effect of compound 5e against a normal cell line, PSC-800–011, was also assigned to evaluate the selectivity of the compound towards the cancer cell lines. […] However, the selectivity index (SI) of compound 5e was also calculated to confirm its selectivity. It was known that any sample that has an SI value higher than 3 will be considered to have high selectivity.

Data set [3] concerns SR cells. Nature of the data set: Cell cycle analysis (propidium iodide staining). It is filed as cell-based. The method, then:
This test was performed using propidium iodide (PI) staining following the detailed procedure in the supporting information (SI 3)[38].
The topoisomerase II inhibitory evaluation, besides the cytotoxicity results of the new compounds, encouraged us to assess the effect of 5e (the most promising candidate) on cell cycle progression in SR cells.
(§1) SI 3. Cell cycle analysis
(§2) Leukemia SR cells were grown in six-well plates (each one contains 2 x 10^5 cells per well) containing 10% fetal bovine serum and incubated for 24 h at 37 °C and 5% CO2. The medium was replaced with (DMSO 1% v/v) containing the 3.1 µM of compound 5e, then incubated for 48 h, collected and washed with cold phosphate buffered saline (PBS). After fixation of the collected cells with ice-cold absolute ethanol (70%), the cells were rinsed with PBS then stained with the DNA fluorochrome PI, kept for 15 min at 37 °C. Then samples were analyzed with a FACS Caliber flow cytometer.
(§3) SI 4. Detection of apoptosis
(§4) Apoptotic activity of compound 5e was evaluated using Annexin V-FITC/PI apoptosis detection kit.
(§5) Leukemia SR cells ([…]) were seeded and incubated with compound 5e for 48 h, trypsinized, collected and washed with phosphate-buffered saline (PBS) several times; SR cells were stained with Annexin V fluorescein isothiocyanate (FITC) and counterstained with propidium iodide (PI) for 15 min at 37 °C in the dark using the apoptosis detection kit (BD Biosciences, San Jose, CA) according to the manufacturer's protocol. Then, Annexin V-FITC and PI binding were analysed by a FACS Caliber flow cytometer.
(§6) SI 5.1. Animals and tumor cell line
(§7) Adult female Swiss albino mice purchased from Theodor Bilharzia Research Institute, Giza, Egypt, with an average body weight of (18-23) g was used. Mice were housed under constant conditions of 12 h light/dark cycle in a […], with free access to standard laboratory mice food and water. […]

In data set [4] the test system is SR cells. Put plainly: Apoptosis analysis (Annexin-V staining assay). It is filed as cell-based. The method, then: The apoptotic analysis was performed according to the detailed description in the supporting information (SI 4)[39].
Annexin-V staining assay was applied to determine the apoptosis induced by compound 5e. […] In detail, 13.61% and 24.33% for the early phase and late phase of apoptosis, respectively, with respect to the control (0.44%, and 0.16%, respectively). Annexin V/PI staining histograms are supported in the supporting information (Figure SI 2).
as §1, §2, §3, §4, §5, §6, §7

Data set [5] concerns Solid Ehrlich carcinoma (SEC). Nature of the data set: In vivo anti-tumour activity in SEC-bearing mice. Details: species or system Swiss albino mice. The note with it: 6 mg/Kg B.W., IP. As for the experimental part: (§8) The full methodology of tumour induction, treatments, and blood measurements was carried out according to the described details in the supporting information (SI 5). Moreover, the experimental protocol was approved by the Research Ethics Committee at Suez Canal University (Approval number REC139/2022, Chemistry Department, Faculty of Science, Suez Canal University). […]
as §6
Adult female Swiss albino mice purchased from Theodor Bilharzia Research Institute, Giza, Egypt, with an average body weight of (18-23) g was used. Mice were housed under constant conditions of 12 h light/dark cycle in a […], with free access to standard laboratory mice food and water.
All procedures related to care and maintenance of the animals were performed according to the international guiding principles for animal research and approved by Faculty of Science, Suez Canal University bioethics and animal ethics committee (Approval number REC-01-2022).
Solid Ehrlich carcinoma (SEC) were got from the National Cancer Institute (Cairo University, Egypt). The tumor cell line was proliferated in mice through serial intraperitoneal (I.P.) transplantation of a volume of 0.2 mL physiological saline contains 1 × 10^6 viable cells for 24 h. SEC cells were collected 7 days after I.P. implantation. The harvested cells were diluted with saline to obtain a concentration of 5 × 10^6 viable SEC cells/mL. A volume of 0.2 mL saline contains 1 × 10^6 SEC cells […]
(§9) that were I.P. implanted into each normal mouse. SEC cells (1 × 10^6 tumor cells/mouse) were implanted subcutaneously into the right thigh of the hind limb.
(§10) The experimental animals were randomly divided into four groups. Group 1 served as the normal saline control. Group 2 served as the SEC control (1 × 10^6 cells/mouse). Group 3 served as the compound-treated group (6 mg/kg B.Wt., I.P.). Group 4 received the standard anticancer drug of […]
survival were recorded daily until the 24th day in both treated and control groups. At the end of experiment, the blood of each group was collected under light anesthesia for estimation of hematological and biochemical assays. The anesthetized animals were then sacrificed for evaluation of the antitumor activity and histopathological examination.
SI 5.2. Antitumor potentiality
It includes tumor volume, weight, and tumor inhibition ration (TIR%). Time interval measurements of tumor volume using digital Vernier caliper (Tricle Brand, Shanghai, China). Measure tumor length and width using clipper and then calculate tumor volume using formulations V = (L x W x W)/2, where V is tumor volume, W is tumor width, L is tumor length. While TIR% was calculated according to the following equation: […]. […]

The nature of data set [6]: Liver enzymes (ALT, AST) in SEC-bearing mice. The note with it: 6 mg/Kg B.W., IP. It is filed as in vivo, Swiss albino mice. The method, then:
as §8, §9, §10
survival were recorded daily until the 24th day in both treated and control groups. At the end of experiment, the blood of each group was collected under light anesthesia for estimation of hematological and biochemical assays. The anesthetized animals were then sacrificed for evaluation of the antitumor activity and histopathological examination. […]
At the end of the experiment, animals from different groups were sacrificed, and blood samples were collected for determination of liver enzymes ALT, AST levels. Activities of aspartate aminotransferase (AST) and alanine aminotransferase (ALT) were evaluated using commercial kits (ELITech clinical systems, France). […]

For orientation: IC50 means the concentration that inhibits the measured activity by half.

The structures appear in SMILES notation.

`O=[N+]([O-])c1ccc(-c2nnc(N3c4ccccc4C=Cc4ccccc43)o2)cc1` [Compound 5e, 2-(5 h-Dibenzo[b,f]azepin-5-yl)-5–(4-nitrophenyl)-1,3,4-oxadiazole]: the IC50 came to 13.1 ± 0.62 µM in data set [1] (Homo sapiens, leukaemia SR cells, unit as in head of Table 3, read-out: Cytotoxicity IC50, SR) and 43.9 ± 2.68 µM in data set [2]. In addition, in data set [1] (normal cell line PSC-800-011 versus SR), the “SI (selectivity index)” value was 3.36. Also, the “Cell cycle arrest phase” value in data set [3] is recorded as “G1 phase”. Further, the “Cell levels in G1 phase” value in data set [3] (3.1 µM of compound 5e, 48 h, control 52.84%) was found to be 61.29%. In addition, the “S phase % of the examined cells” value in data set [3] (3.1 µM of compound 5e, 48 h, untreated 34.18%) is on record as 36.86%. In addition, the “Increase of the apoptosis ratio compared to the untreated cells” value in data set [4] (concentration equivalent to IC50 (13.05 µM), 48 h) came out at 37.34%. Moreover, the “Late phase of apoptosis” value in data set [4] (concentration equivalent to IC50, control 0.16%) is recorded as 24.33%. The “Early phase of apoptosis” value in data set [4] (concentration equivalent to IC50, control 0.44%) is 13.61%. The “Tumour inhibition ratio (TIR%)” value in data set [5] came out at 62.7%. In data set [5] (SEC control 226 mg), the Solid tumour mass is given as 96.3 mg. The same compound had a Tumour volume in data set [5] (SEC control 80.6 mm^3) of 30.1 mm^3. For the same compound, the ALT in data set [6] (SEC control 65.9 U/L) was found to be 39.8 U/L. The compound further showed an AST in data set [6] (SEC control 71 U/L) of 35.6 U/L.
